Converted amounts (≈) assume the structure as drawn. “Also recorded” adds a separate entry of the source. Each block holds one molecule with its values, some of them ahead of it.
What was measured:
[1] = target: T1, soluble epoxide hydrolase (sEH) (Homo sapiens, UniProt P34913); assay: Human in vitro Ki and dissociation t1/2 from the enzyme (fluorescence signals); type: binding; details: for Human In vitro t1/2 (time for half of the drug being dissociated from the enzyme): based on fluorescence signals
T1 sequence (P34913 1-555): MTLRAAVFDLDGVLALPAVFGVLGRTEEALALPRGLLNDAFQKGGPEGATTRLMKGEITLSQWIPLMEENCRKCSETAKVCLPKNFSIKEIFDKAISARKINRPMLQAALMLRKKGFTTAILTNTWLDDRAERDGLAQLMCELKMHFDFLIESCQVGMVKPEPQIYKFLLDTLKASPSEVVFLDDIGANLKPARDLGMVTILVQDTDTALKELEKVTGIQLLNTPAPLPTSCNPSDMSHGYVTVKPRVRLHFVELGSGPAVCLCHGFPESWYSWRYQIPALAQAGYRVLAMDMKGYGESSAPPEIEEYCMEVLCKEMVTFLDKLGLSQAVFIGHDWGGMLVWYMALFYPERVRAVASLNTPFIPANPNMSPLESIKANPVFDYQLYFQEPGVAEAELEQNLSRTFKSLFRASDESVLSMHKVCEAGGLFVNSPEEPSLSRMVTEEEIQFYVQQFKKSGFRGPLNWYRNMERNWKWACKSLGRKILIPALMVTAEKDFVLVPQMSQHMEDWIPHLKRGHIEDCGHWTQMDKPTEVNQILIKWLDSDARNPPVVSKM

[2] = Mouse PK, single oral gavage; details: mouse, in vivo, po, 0.3 mg/kg, single dose 0.3 mg/kg; for AUC: Mouse AUC, 20% PEG400 in oleic acid-rich triglyceride
[3] = Rat PK, single oral gavage; type: in vivo; details: single dose 0.1 mg/kg
Experimental LogP = type: physicochemical
Solubility in buffer = type: physicochemical; details: aqueous buffer; Sodium Phosphate Buffer at pH 7.4
[4] = tested on: Neonatal rat ventricular myocytes (NRVM) expressing 2157del2 JUP; assay: Immunofluorescence of junction proteins in ACM in vitro model; type: cell-based; details: for ACM disease features/readouts overall, EET and EEZE / ACM disease features overall (plakoglobin, Cx43, pRelA/p65, TUNEL), sEH inhibitors: Jup2157del2 myocytes; for ACM disease features/readouts overall, EET and EEZE: 10 μM; for ACM disease features overall (plakoglobin, Cx43, pRelA/p65, TUNEL), sEH inhibitors: 2.017 500 nM, 1.045 1 μM, concentration not given for 1,002 and 3.023; for Loss of cell surface signal for Cx43 / Redistribution of junctional plakoglobin to intracellular/nuclear sites: 500 nM 2.017 or 1 μM 1.045, 24 hours
Procedure: Neonatal rat ventricular myocytes (NRVM) were isolated from the ventricles of 1-day-old Wistar rat pups and plated on collagen-coated plastic chambers. 24 hours following seeding, the cells were transfected with an adenoviral construct expressing a mutant form of plakoglobin known to cause arrhythmogenic cardiomyopathy in patients (2157del2 JUP). […] Non-transfected cultures and cultures transfected with the adenoviral construct only served as negative and positive controls, respectively.
(§1) Immunofluorescence: Cell cultures were fixed with 4% paraformaldehyde and prepared for immunofluorescence analysis as previously described (1). […] Cy3-conjugated goat anti-mouse and anti-rabbit antibodies (Jackson Immunolabs) were used as secondary antibodies and DAPI was used to visualize the nuclei. Immunostained preparations were visualized by confocal microscopy and changes in spatial distribution of signal were assessed qualitatively.

NFκB = assay: Nuclear pRelA/p65 immunofluorescence (NFκB activation) in ACM in vitro model; type: cell-based, rat; details: 500 nM 2.017 or 1 μM 1.045, 24 hours
Procedure: (§2) Neonatal rat ventricular myocytes (NRVM) were isolated from the ventricles of 1-day-old Wistar rat pups and plated on collagen-coated plastic chambers. 24 hours following seeding, the cells were transfected with an adenoviral construct expressing a mutant form of plakoglobin known to cause arrhythmogenic cardiomyopathy in patients (2157del2 JUP). 24 hours following transfection, the cells were treated with 500 nM 2.017 or 1 μM 1.045 for an additional 24 hours. Non-transfected cultures and cultures transfected with the adenoviral construct only served as negative and positive controls, respectively.
as §1

[5] = tested on: Neonatal rat ventricular myocytes (NRVM) expressing 2157del2 JUP; assay: TUNEL apoptosis assay in ACM in vitro model; type: cell-based; details: 500 nM 2.017 or 1 μM 1.045, 24 hours
Procedure: as §2
Apoptosis assay: Terminal deoxynucleotidyl transferase dUTP nick end labelling (TUNEL) was performed on NRVM cultures following the manufacturer's instructions (Millipore, S7110). DNA strand breaks generated in apoptotic cells were labelled with fluorescein (green) and nuclei were visualized with DAPI. The number of TUNEL-positive nuclei was counted in 5 randomly selected high-power fields in each culture well and expressed as a percent of total nuclei visualized with DAPI.

Dsg2^mut/mut mice = assay: LV function in Dsg2mut/mut mice; type: in vivo, mouse; details: 3 mg/kg/day for 20 days, vs. untreated mice

Human In vitro t1/2 (time for half of the drug being dissociated from the enzyme) [1]: 0.0617 h
SMILES: CC[C@H](C)C(=O)N1CCC(NC(=O)Nc2ccc(C(F)(F)F)nc2)CC1

Human In vitro t1/2 (time for half of the drug being dissociated from the enzyme) [1]: 0.167 h | AUC ([2]; oral gavage): ≥ 99.9 nM·h | Cmax ([3]; rat, in vivo): 0.042 ± 0.006 µM | Tmax ([3]; rat, in vivo): 2.1 ± 0.3 h | AUC ([3]; rat, in vivo, PEG 300): 241 ± 12 nM·h | half-life ([3]; rat, in vivo, read-out: Rat T1/2 (converted)): 2.9 ± 0.5 h
SMILES: CC[C@H](C)C(=O)N1CCC(NC(=O)Nc2ccc(OC(F)(F)F)c(Cl)c2)CC1

Ki [1]: 4.72 nM | Human In vitro t1/2 (time for half of the drug being dissociated from the enzyme) [1]: 0.0783 h | logP (Experimental LogP; read-out: Exp. LogP): 6 | solubility (Solubility in buffer): 2.6 µg/mL (≈ 6.43 µM)
SMILES: CC[C@H](C)C(=O)N1CCC(CC(=O)Nc2ccc(OC(F)(F)F)cc2F)CC1

Exp. LogP (Experimental LogP): 3.41
SMILES: O=C(Nc1ccc(C(F)(F)F)c(F)c1)NC1CCN(C(=O)[C@@H]2CCOC2)CC1 (stereo in doubt)

SMILES: CCCCCC1OC1CCCCCCC/C=C\CCCC(=O)O (stereo not drawn) [14,15-EE-5(Z)E, reference compound]
ACM disease features/readouts overall, EET and EEZE [4]: intensified ACM disease readouts; also recorded: intensifies these ACM disease features; also recorded: intensified these ACM features

SMILES: CCCCCC1OC1C/C=C\C/C=C\C/C=C\CCCC(=O)O (stereo not drawn) [14,15-EET, reference compound]
ACM disease features/readouts overall, EET and EEZE [4]: produced potent salutary effects; also recorded: reversed

SMILES: CC[C@H](C)C(=O)N1CCC(NC(=O)Nc2ccc(OC(F)(F)F)c(F)c2)CC1 [Compound 1.002]
ACM disease features overall (plakoglobin, Cx43, pRelA/p65, TUNEL), sEH inhibitors [4]: showed similar results

SMILES: CCC(=O)N1CCC(NC(=O)Nc2ccc(OC(F)(F)F)cc2)CC1 [Compound 1.045]
Activation of NFκB (nuclear signal for pRelA/p65) (NFκB): prevented activation of NFκB; also recorded: blocked activation of NFκB | Myocyte apoptosis (TUNEL+ nuclei) [5]: greatly diminished myocyte apoptosis | LV function (Dsg2^mut/mut mice): marked recovery of LV function; also recorded: recovered LV function | Loss of cell surface signal for Cx43 [4]: reduced loss of cell surface signal for Cx43 | Redistribution of junctional plakoglobin to intracellular/nuclear sites [4]: prevented redistribution of junctional plakoglobin; also recorded: prevented translocation of junctional plakoglobin | ACM disease features overall (plakoglobin, Cx43, pRelA/p65, TUNEL), sEH inhibitors [4]: reversed

SMILES: NS(=O)(=O)c1ccc(-n2nc(CCCNC(=O)Nc3ccc(C(F)(F)F)cc3)cc2-c2ccccc2)cc1 [Compound 2.017]
Activation of NFκB (nuclear signal for pRelA/p65) (NFκB): prevented activation of NFκB; also recorded: blocked activation of NFκB | Myocyte apoptosis (TUNEL+ nuclei) [5]: greatly diminished myocyte apoptosis | Loss of cell surface signal for Cx43 [4]: reduced loss of cell surface signal for Cx43 | Redistribution of junctional plakoglobin to intracellular/nuclear sites [4]: prevented redistribution of junctional plakoglobin; also recorded: prevented translocation of junctional plakoglobin | ACM disease features overall (plakoglobin, Cx43, pRelA/p65, TUNEL), sEH inhibitors [4]: reversed

SMILES: O=C(Nc1ccc(OC(F)(F)F)cc1)N[C@H]1CC[C@H](Oc2ccc(C(=O)O)cc2)CC1 [Compound 3.023]
ACM disease features overall (plakoglobin, Cx43, pRelA/p65, TUNEL), sEH inhibitors [4]: showed similar results

AUC ([2]; oral gavage): 99.8 ± 0.1 nM·h | Cmax ([2]; Mouse Cmax, oral gavage): 0.737 µM | half-life ([2]; Mouse T1/2, oral gavage): 117 h | Tmax ([2]; Mouse Tmax, oral gavage): 1.6 h | Exp. LogP (Experimental LogP): 5.98 | Cmax [3]: 0.042 ± 0.006 µM | Rat T1/2 [3]: 1.6 ± 0.2 h | Rat Tmax [3]: 1.8 ± 0.1 h | Rat AUC ([3]; PEG 300): 208 ± 25 nM·h
SMILES: CC[C@H](C)C(=O)N1CCC(NC(=O)Nc2ccc(OC(F)(F)F)c(F)c2)CC1 [drawing 88]
